Measurements as given in ChEMBL document CHEMBL4390686, “Design, Synthesis, and Pharmacokinetic Evaluation of Phosphate and Amino Acid Ester Prodrugs for Improving the Oral Bioavailability of the HIV-1 Protease Inhibitor Atazanavir” (J Med Chem, 2019).
In brackets after ≈: the same amount, converted by molar mass.

Columns and labels:
[1] = Half life in rat whole blood at 1 uM by UPLC-MS/MS analysis; type: ADME, tissue-based
[2] = AUClast in cannulated Sprague-Dawley rat assessed as atazanavir level at 30 mg/kg equiv of atazanavir administered orally by UPLC/MS/MS analysis; type: ADME, organism-based; parameters: dose 30 mg/kg, route oral, time 0 - last; conditions: in vivo, po
physchem [3] = conditions: HCl buffer, pH 1
Description: Aqueous solubility of the compound in pH 1 HCl buffer by RP-UPLC analysis

[4] = Drug metabolism in cannulated Sprague-Dawley rat assessed as prodrug to atazanavir ratio at 30 mg/kg equiv of atazanavir administered orally by UPLC/MS/MS analysis; type: ADME, organism-based; conditions: in vivo, po
[5] = Prodrug conversion in rat hepatocytes assessed as pseudo first order rate constant for atazanavir formation at 1 uM in presence of esterase inhibitor PMSF/CYP450 inhibitor ABT; type: ADME, cell-based, Hepatocyte
[6] = target: T1, UDP-glucuronosyltransferase 1A1 (Homo sapiens, UniProt P22309); assay: Inhibition of UGT1A1 in human liver microsomes using beta-estradiol as substrate preincubated for 5 mins followed by substrate addition and measured after 40 mins by LC-MS/MS analysis; type: ADME
T1 sequence (P22309 whole entry): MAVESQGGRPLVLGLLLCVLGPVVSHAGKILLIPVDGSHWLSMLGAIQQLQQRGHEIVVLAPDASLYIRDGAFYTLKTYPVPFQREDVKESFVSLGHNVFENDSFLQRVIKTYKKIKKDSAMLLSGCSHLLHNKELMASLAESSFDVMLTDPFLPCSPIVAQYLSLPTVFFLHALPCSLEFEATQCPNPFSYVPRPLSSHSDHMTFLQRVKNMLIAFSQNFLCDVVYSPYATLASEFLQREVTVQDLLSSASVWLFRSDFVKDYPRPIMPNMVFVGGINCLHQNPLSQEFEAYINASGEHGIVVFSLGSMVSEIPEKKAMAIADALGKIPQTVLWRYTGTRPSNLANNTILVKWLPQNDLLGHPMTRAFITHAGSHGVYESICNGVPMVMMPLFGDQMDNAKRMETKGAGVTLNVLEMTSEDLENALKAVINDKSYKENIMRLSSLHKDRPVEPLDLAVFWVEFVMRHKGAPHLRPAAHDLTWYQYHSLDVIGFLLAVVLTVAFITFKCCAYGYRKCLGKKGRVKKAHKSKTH

[7] = Ratio of test compound to atazanavir aqueous solubility in pH 4 acetate buffer by RP-UPLC analysis; type: physicochemical
[8] = Prodrug conversion in rat hepatocytes assessed as pseudo first order rate constant for atazanavir formation at 1 uM in presence of esterase inhibitor PMSF; type: ADME, cell-based, Hepatocyte
[9] = Ratio of test compound to atazanavir aqueous solubility in pH 3 buffer by RP-UPLC analysis; type: physicochemical
in vitro [10] = conditions: human, Caco-2
Description: Efflux ratio of apparent permeability across basolateral to apical side over apical to basolateral side in human Caco2 cells

in vitro [11] = conditions: human, Caco-2; remark: listed apart in the source
Description: Apparent permeability across basolateral to apical side in human Caco2 cells at 2 uM

physchem [12] = conditions: acetate buffer, pH 4
Description: Aqueous solubility of the compound in pH 4 acetate buffer by RP-UPLC analysis

[13] = Cmax in cannulated Sprague-Dawley rat assessed as atazanavir level at 6 mg/kg equiv of atazanavir administered orally by UPLC/MS/MS analysis; type: ADME, organism-based; parameters: dose 6 mg/kg, route oral; conditions: in vivo, po
[14] = Stability in simulated gastric fluid assessed as porcine pepsin-mediated compound hydrolysis at 1 mL measured up to 1 hr at pH 1.2 by HPLC analysis; type: ADME, Sus scrofa; conditions: pig, isolated protein, pH 1.2, 1 h
[15] = Cmin in cannulated Sprague-Dawley rat assessed as atazanavir level at 6 mg/kg equiv of atazanavir administered orally measured after 24 hrs by UPLC/MS/MS analysis; type: ADME, organism-based; conditions: in vivo, po, BLD = below limit of detection
[16] = Ratio of test compound to atazanavir aqueous solubility in pH 4 citrate buffer by RP-UPLC analysis; type: physicochemical
[17] = Drug metabolism in cannulated Sprague-Dawley rat assessed as prodrug to atazanavir ratio at 6 mg/kg equiv of atazanavir administered orally by UPLC/MS/MS analysis; type: ADME, organism-based; conditions: in vivo, po
[18] = Aqueous solubility of the compound in pH 5 buffer by RP-UPLC analysis; type: physicochemical
[19] = Cmax in cannulated Sprague-Dawley rat assessed as atazanavir level at 30 mg/kg equiv of atazanavir administered orally by UPLC/MS/MS analysis; type: ADME, organism-based; parameters: dose 30 mg/kg, route oral; conditions: in vivo, po
[20] = Total AUC in cannulated Sprague-Dawley rat assessed as atazanavir level at 30 mg/kg equiv of atazanavir administered orally by UPLC/MS/MS analysis relative to atazanavir alone; type: ADME, organism-based; conditions: in vivo, po
[21] = target: T1, UDP-glucuronosyltransferase 1A1; assay: Inhibition of recombinant human UGT1A1 using bilirubin as substrate preincubated for 5 mins followed by substrate addition and measured after 40 mins by LC-MS/MS analysis; type: ADME
[22] = Prodrug conversion in rat hepatocytes assessed as pseudo first order rate constant for atazanavir formation at 1 uM in presence of CYP450 inhibitor ABT; type: ADME, cell-based, Hepatocyte
[23] = Aqueous solubility of the compound in pH 4 citrate buffer by RP-UPLC analysis; type: physicochemical
[24] = target: T2, UDP-glucuronosyltransferase 1A1 (Rattus norvegicus, UniProt Q64550); assay: Inhibition of UGT1A1 in rat liver microsomes using beta-estradiol as substrate preincubated for 5 mins followed by substrate addition and measured after 40 mins by LC-MS/MS analysis; type: ADME
T2 sequence (Q64550 whole entry): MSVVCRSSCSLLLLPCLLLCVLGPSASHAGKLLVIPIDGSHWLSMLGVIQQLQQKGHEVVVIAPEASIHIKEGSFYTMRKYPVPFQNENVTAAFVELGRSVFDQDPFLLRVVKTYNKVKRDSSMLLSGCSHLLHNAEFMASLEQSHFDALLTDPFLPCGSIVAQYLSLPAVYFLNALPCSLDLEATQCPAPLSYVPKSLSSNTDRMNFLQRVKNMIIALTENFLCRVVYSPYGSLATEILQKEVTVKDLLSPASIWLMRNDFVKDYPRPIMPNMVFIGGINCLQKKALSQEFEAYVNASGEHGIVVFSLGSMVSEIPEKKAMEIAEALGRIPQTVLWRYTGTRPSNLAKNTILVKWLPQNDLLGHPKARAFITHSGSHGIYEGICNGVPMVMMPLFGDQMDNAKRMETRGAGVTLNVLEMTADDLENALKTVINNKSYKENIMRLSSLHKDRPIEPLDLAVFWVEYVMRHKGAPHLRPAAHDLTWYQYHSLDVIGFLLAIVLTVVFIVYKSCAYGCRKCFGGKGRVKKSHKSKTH

UGT1A1 = assay: Ratio of test compound IC50 to atazanavir IC50 for recombinant cynomolgus monkey UGT1A1; type: ADME, Macaca fascicularis; conditions: read-out: Ratio IC50
physchem [25] = conditions: phosphate buffer, pH 6.5
Description: Aqueous solubility of the compound in pH 6.5 phosphate buffer by RP-UPLC analysis

[26] = Tmax in cannulated Sprague-Dawley rat assessed as atazanavir level at 6 mg/kg equiv of atazanavir administered orally by UPLC/MS/MS analysis; type: ADME, organism-based; conditions: in vivo, po
[27] = Drug recovery in intestinal content of closed loop rat intestinal model at 1 mg/kg administered as cassette dose by LC/MS analysis; type: ADME, organism-based; conditions: in vivo

For `COC(=O)N[C@H](C(=O)N[C@@H](Cc1ccccc1)[C@H](CN(Cc1ccc(-c2ccccn2)cc1)NC(=O)[C@@H](NC(=O)OC)C(C)(C)C)OC(=O)[C@@H](N)Cc1ccccc1)C(C)(C)C`, the half-life at 1 µM [1] was greater than 2 h, the AUClast [2] was 19.67 µM·h and the solubility (physchem [3]) was greater than 1500 µg/mL. The Ratio [4] was 0.3, the K [5] was 0.0014 min⁻¹ and the IC50 [6] was 2500 nM. The Ratio [7] was 4100, the K [8] was 0.0009 min⁻¹ and the Ratio [9] was 114. It also gave an efflux ratio (in vitro [10]) greater than 8.7, a Papp B→A at 2 µM (in vitro [11]) of 13.1 ×10⁻⁶ cm/s and a solubility (physchem [12]) of 1100 to 4100 µg/mL (≈ 1290 to 4810 µM). For the same compound, the Cmax [13] was 550 nM, the Stability [14] was “Stable” and the Cmin [15] was “Bld”. It also gave a Ratio [16] of 1100, a Ratio [17] of 0.7 and a solubility [18] of 1300 µg/mL (≈ 1530 µM). For the same compound, the Cmax [19] was 4720 nM, the “fold change (FC)” value [20] was 65.3 and the IC50 [21] was 2800 nM. The K [22] was 0.0042 min⁻¹, the solubility [23] was greater than 1100 µg/mL and the IC50 [24] was 19500 nM. The selectivity ratio (UGT1A1) was 17, the solubility (physchem [25]) was 27 µg/mL (≈ 31.7 µM) and the Tmax [26] was 0.5 h. It also gave a Drug recovery [27] of 32%.
